Measured values as given in patent US11214590B2, “Photoresponsive nucleotide analog capable of photocrosslinking in visible light region” (JAPAN ADVANCED INSTITUTE OF SCIENCE AND TECHNOLOGY, priority 2017, dated 2022).

Tests used:
cODN = test: Photocrosslinking test with SPCX, UPLC analysis; type: biochemical
Protocol: The experiment was carried out as described below using the following ODN (^SPCX) and cODN:
10 μM of ODN (^SPCX) and 10 μM of cODN were dissolved in a 50 mM cacodylic acid buffer (pH 7.4) containing 100 mM of NaCl, and then heated at 90° C. for 1 minute, and then cooled at 4° C. Irradiation with light having 450 nm (LED) was carried out at 4° C. Analysis was then carried out by UPLC. The analysis conditions for UPLC are as follows. The measurement was carried out at a measurement wavelength of 260 nm and at a flow rate of 0.2 mL/min, using a mixed solution of ammonium formate and acetonitrile in which the initial conditions were 99% of ammonium formate and […], and 85% of ammonium formate and 15% of acetonitrile at the end of the analysis (10 minutes).

nucleic acids = conditions: irradiation with light having 350 nm; cited from earlier work

In the case of 5'-TGCA^SPCXCCGT-3' [ODN (^SPCX)], the “progress of photocrosslinking reaction (UPLC peaks)” value (cODN; 450 nm (LED), 4° C., 10 μM ODN and 10 μM cODN) is reported as “progress of the photocrosslinking reaction was confirmed”.
For `OC[C@H]1O[C@@H](n2c3ccccc3c3cc4ccc(=S)oc4cc32)CC1O` (stereo partly shown) [^SPCX], the “photoreactivity compared with pyranocarbazole (PCX)” value (cODN; irradiation with light having 450 nm) was “higher photoreactivity” and the “light irradiation time giving photocrosslinking” value (cODN; irradiation with light having 450 nm, 4° C.) was 10 s.
For `O=c1ccc2cc3ccoc3cc2o1` [psoralen], the “time required for photoreaction” value (nucleic acids) is given as “several hours”.
